# Laboratory results reported in patent US20190183124A1, “METHOD FOR CONTROLLING PESTS IN MODIFIED PLANTS” (BASF SE, priority 2016, published 2019).
# Test system: Sweetpotato whitefly (Bemisia tabaci)
# Experiment: Action on Sweetpotato whitefly (Bemisia tabaci) on soybean plants, greenhouse foliar spray
# Type: in vivo
# Conditions: for Mean whitefly nymph response (Whitefly Nymphs D.A.A.-2): dose 60 ppm a.i. (text: 60 g a.i./ha, 200 L/ha), two applications 7 days apart, whole plant counts 3 days after 2nd application, greenhouse
# Method: The active compound tested was formulated as a SL-type formulation.
# Action on Sweetpotato whitefly (Bemisia tabaci)
# A randomized block, 2 by 3 factorial experimental design was utilized to determine the interaction effects and main effects of two explanatory variables: product rate and soybean variety on the response variable, whitefly mortality. The study was conducted under greenhouse conditions and utilized lntacta™ (Bt-traited) and ‘BMX Potencia’ (non-traited) varieties at growth stage 11, respectively. All study plants were infested with Bemisia tabaciadults prior to application.
# Formulated material of compound I-1 was combined with water and applied at concentration of 60 gai/ha with a CO2 pressurized spray boom at 200 L/ha water volume. The first application was timed to a threshold whitefly infestation, and was followed by a second application 7 days later.
# Assessments were conducted by taking whole plant counts of adult and immature whiteflies at 3 days after the second application.
smiles,measurement,setting,value
"CCN(C(=O)c1cnn(C(C)C(C)C)c1C)c1ccnnc1 (stereo not drawn) [I-1, 1-(1,2-dimethylpropyl)-N-ethyl-5-methyl-N-pyridazin-4-yl-pyrazole-4-carboxamide]",Effect against whiteflies in Intacta soybean relative to BMX Potencia,"60 g a.i./ha, 3 days after second application, Intacta vs BMX Potencia soybean",synergistic effect
same,Mean whitefly nymph response (Whitefly Nymphs D.A.A.-2),BMX Potencia (non-traited) soybean,4.91
same,Mean whitefly nymph response (Whitefly Nymphs D.A.A.-2),Intacta (Bt-traited) soybean,0.57
